Series [1] deals with Dutch Belted virgin rabbits. Kind of series: Antifertility effects in vivo by intrauterine administration. The conditions noted are these: 40-mg dimethylpolysiloxane rubber rod, 10% W/W. Further details: species or system rabbit. How it is done:
Dutch Belted virgin rabbits, each weighing 3-4 pounds, are randomly selected and anesthetized with sodium pentobarbital (50 μg./ml.) administered by IV drip. The uterus of each animal is exposed and a 40-mg. sample in the shape of a rod (3 mm. in diameter) of dimethylpolysiloxane rubber (as prepared in Example 3) containing 10% W/W of sodium sulfopropyl n-dodecanoate is sutured into the right uterine horn at a random location in between the cervix and the utero-tubal junction. The left horn is left untreated to serve as control. The rubber rod is placed into the uterine horn by passing a curved needle through it and through the uterine wall pulling the rod into the uterine lumen. The entry is closed by suturing. Animals (blank) are similarly treated using unmedicated dimethylpolysiloxane rubber to serve as a second group of controls. The animals are given 300,000 units of Duracillin® per day (in four doses) and are allowed to recover for 14 days. Each animal is bred to a male of proven fertility and is immediately given a dose (IV) of appropoximately 100 units of human chorionic gonadotropin (HCG) to facilitate ovulation. Fourteen days after breeding, the animal are sacrificed by cervical dislocation and the uterine horns are examined for implanted embryos. The number of embryos per uterine horn are recorded.

Series [2] relates to virgin dutch belted female rabbit. Kind of series: Antifertility effects in vivo by intravaginal administration. The conditions noted are these: 1 ml of equal volumes Ky-jelly and 10 mg./ml. solution, before breeding, 6 animals. How it is done:
Equal volumes of Ky-jelly® and either Ca^++ free Ringer's solution or a 10 mg./ml. solution of the compound to be tested in Ca^++ free Ringer's solution are well mixed. One milliliter of this is placed into the vagina of a virgin dutch belted female rabbit using a syringe. The female is then immediately bred to a fertile buck. The female is injected I.V. with 100 units of human chorionic gonadotrophin to assure a good ovulation rate.
After approximately 14 days the females are sacrificed by cervical dislocation and the genital system examined for the number of embryos.

Series [3] can be described thus: Drug release rate from dimethylpolysiloxane rubber compositions in calcium-free Ringers solution. The conditions noted are these: footnote of Table II; Calc. on basis of hyaluronidase inhibition. Format: physicochemical.
Experimental: An appropriate sample of a dimethylpolysiloxane rubber composition in which is incorporated the test compound is placed in a suitable amount of calcium-free Ringers solution, and the sample and solution are incubated together at 37° C. for a period of time (e.g. 24 hours). […] The equivalent amount of test compound in the removed solution is calculated from standard inhibition curves in which hyaluronidase inhibition is plotted against concentration of the test compound. The calculated result are expressed as micrograms of test compound released per day.
The above test may be repeated for an extended period of time, for example, for 1 day to 360 days, or more, by adding fresh calcium-free Ringer's solution after each removal of the solution for assay.
The sample weight was 4 mg. and the amount of added solution was 1 ml.
Another series relates to cumulus oophorus. As to the kind of experiment: Removal of cumulus oophorus from ova by hyaluronidase, in vitro. Format: cell-based, rabbit. The note with it: 10 μl of 10 mg./ml. compound solution in 1 ml calcium-free Ringer's solution, 37° C. How it is done:
In the absence of sodium sulfopropyl dodecanoate, complete removal of the cumulus oophorus is observed.
Female rabbits are given 100 units of pregnant mares serum (PMS), IM, and 134 units of HCG, IV. After 13 hours the animals are sacrificed, and the ovaries are excised. The ovaries are submerged in calcium-free Ringer's solution containing 20% rabbit serum which had been heated to 55° C. for 20 minutes. Ova with cumulus intact are removed and placed in calcium-free Ringer's solution for incubation at 37° C. Hyaluronidase (10 μl.) of a 10 mg./ml. solution in calciumfree Ringer's solution is added to 20 ova in 1 ml. of the incubation medium. To 10 ova in the same medium is added 10 μl. of a solution of sodium sulfopropyl n-dodecanoate (10 mg./ml.) in calcium-free Ringer's solution. To 10 other ova in the same media is added 10 μl. of calcium-free Ringer's solution as control. The mixtures are incubated at 37° C., and the cumulus oophorus is examined at 15 minute intervals with an American Optical stereomicroscope. In the absence of sodium sulfopropyl n-dodecanoate, the cumulus oophorus is completely removed.

A further series has as its target acrosin (Homo sapiens, UniProt P10323). As to the kind of experiment: Acrosin inhibition in vitro. Format: biochemical. The note with it: statement in words.

Chain of acrosin (P10323 20-421, species assumed): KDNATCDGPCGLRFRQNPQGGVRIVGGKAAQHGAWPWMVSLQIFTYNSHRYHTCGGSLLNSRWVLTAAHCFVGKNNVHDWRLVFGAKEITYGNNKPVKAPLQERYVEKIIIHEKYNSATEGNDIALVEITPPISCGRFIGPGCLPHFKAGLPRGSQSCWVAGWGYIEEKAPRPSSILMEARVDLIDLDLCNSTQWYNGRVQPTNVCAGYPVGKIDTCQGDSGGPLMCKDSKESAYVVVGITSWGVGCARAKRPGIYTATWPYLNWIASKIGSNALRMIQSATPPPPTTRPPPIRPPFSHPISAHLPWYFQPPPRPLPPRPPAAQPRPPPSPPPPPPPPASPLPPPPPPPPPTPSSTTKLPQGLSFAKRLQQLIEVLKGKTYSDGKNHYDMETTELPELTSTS

For `CCCCCCCCCCCC(=O)OCCCS(=O)(=O)O.[Na]` [CH3 (CH2)10, n=3, sodium sulfopropyl dodecanoate], the “Total No. of embryos” value in series [1] (in right uterine horn, 11 horns, 14 days after breeding) is recorded as 1. In addition, in series [1] (in uterine horn, p < .001 compared to untreated and to blank), the “[drawing 14] (number of embryos per uterine horn)” value was 0.09. Moreover, the “Avg. No. of Embryos per animal” value in series [2] is 0. Moreover, the No. of embryos in series [2] (approximately 14 days) was found to be 0. Besides, the “Release rate from dimethylpolysiloxane, in vitro” value in series [3] is 1 to 3 mg/day. The “state of the cumulus oophorus of rabbit ova incubated with hyaluronidase” value is reported as “the cumulus oophorus remain substantially intact” with cumulus oophorus and “the cumulus remains substantially intact” in the series with cumulus oophorus (listed as sodium sulfopropyl n-dodecanoate).
Consider “sodium sulfopropyl 15-methylheptadecanoate”, for which, at acrosin, the “anti-acrosin activity (inhibition in vitro of the action of acrosin)” value is on record as “anti-acrosin activity”.
Same read-out and setting: with `CCCC/C=C/CCCCCCCC(=O)OCCCS(=O)(=O)O` [trans- CH3 (CH2)3 CHCH(CH2) 7, n=3, sodium sulfopropyl myristelaidate] the entry was “anti-acrosin activity”; with “sodium sulfopropyl 16-methylheptadecanoate”, “anti-acrosin activity”.
On the same count and under the same terms, next, `CCCC/C=C\CCCCCCCC(=O)OCCCS(=O)(=O)O.[Na]` [cis- CH3 (CH2)3 CHCH(CH2)7, n=3, sodium sulfopropyl myristoleate]: “anti-acrosin activity”.
